Results from US5652226A (priority 1995, dated 1997).
In brackets after ≈: the same amount, converted by molar mass.

What was measured:
Type in all cases: cell-based
[1] = test system: various strains of streptococci and enterococci resistant to vancomycin; experiment: microbe, parasite or virus in culture; settings: read-out: MICs
[2] = test system: Trichiomonas vaginalis; experiment: microbe, parasite or virus in culture; settings: read-out: MICs
[3] = test system: Mycoplasma; experiment: microbe, parasite or virus in culture; settings: read-out: MICs
[4] = test system: methicillin-resistant staphylococci; experiment: microbe, parasite or virus in culture
[5] = test system: methicillin-susceptible staphylococci; experiment: microbe, parasite or virus in culture
[6] = test system: Legionella pneumophila and L. Longbeachea; experiment: microbe, parasite or virus in culture; settings: read-out: MICs
[7] = test system: Borrelia burgdorferi; experiment: microbe, parasite or virus in culture; settings: Borreliella burgdorferi, read-out: MICs
[8] = test system: gram positive and gram negative bacteria
[9] = test system: Enterococcus faecalis; experiment: microbe, parasite or virus in culture
[10] = test system: gram negative bacteria; experiment: microbe, parasite or virus in culture; settings: read-out: GMM

Structure (SMILES)	MIC [1] [µg/mL]	MIC [2] [µg/mL]	MIC [3] [µg/mL]	potency relative to vancomycin ([4]; more potent than vancomycin, methicillin-resistant staphylococci) [fold]	MIC ([4]; read-out: GMM) [µg/mL]	potency relative to vancomycin [5] [fold]	MIC ([5]; read-out: GMM) [µg/mL]	MIC [6] [µg/mL]	MIC [7] [µg/mL]	cross resistance with other antibiotics [8]	potency relative to vancomycin [9] [fold]	MIC ([9]; Enterococcus faecalis, read-out: GMM) [µg/mL]	MIC [10] [µg/mL]
CN[C@H](CC(C)C)C(=O)N[C@H]1C(=O)N[C@@H](CC(N)=O)C(=O)N[C@H]2C(=O)N[C@H]3C(=O)N[C@H](C(=O)N[C@H](C(=O)O)c4cc(O)cc(O)c4-c4cc3ccc4O)[C@H](O)c3ccc(c(Cl)c3)Oc3cc2cc(c3O[C@@H]2O[C@H](CO)[C@@H](O)[C@H](O)[C@H]2O[C@H]2C[C@](C)(N)[C@H](O)[C@H](C)O2)Oc2ccc(cc2Cl)[C@H]1O [vancomycin]	≥ 128	–	–	–	–	–	–	–	–	–	–	–	–
COC[C@H]1O[C@@H](O[C@@H]2OC[C@@H]3O[C@@]4(OC[C@@H](OC(=O)c5c(C)cc(O)cc5O)[C@@H]5OCO[C@H]54)O[C@H]3[C@H]2O)[C@@H](OC)[C@@H](O)[C@@H]1O[C@@H]1O[C@H](C)[C@H](OC)[C@H](O[C@@H]2O[C@H](C)[C@H]3O[C@]4(C[C@@H](O)[C@H](O[C@H]5C[C@@H](O[C@H]6C[C@](C)([N+](=O)[O-])[C@@H](OC)[C@H](C)O6)[C@H](OC(=O)c6c(C)c(Cl)c(O)c(Cl)c6OC)[C@@H](C)O5)[C@@H](C)O4)O[C@]3(C)[C@@H]2O)[C@H]1O [Everninomicin, everninomicin]	≤ 0.5	≥ 192	≥ 200	10	0.1 (≈ 0.0613 µM)	10	0.5 (≈ 0.306 µM)	≥ 2.5	≤ 0.49	No cross resistance with other antibiotics was observed	2	0.49 (≈ 0.3 µM)	≥ 760
